We go through 2 substances from patent publication US20080118480A1, “Methods and Compositions for Directing Migration of Neural Progenitor Cells” (IMCLONE SYSTEMS INCORPORATED, priority 2003, published 2008).

Assay type in all cases: cell-based, rat
Experiment [1] concerns VEGFR-1. Briefly: RNase protection assay of VEGF receptor mRNA expression. Particulars: 12 hours starvation of FGF-2 versus cells in FGF-2. On the procedure: (§1) Neural progenitor cells at 6 days of culture in FGF-2 or after starvation of FGF-2 for 12 hours were used for RNA preparation. Total cellular RNA was purified using Trizol reagent (Invitrogen). RNase protection assays were performed using cRNA probes for rat VEGFR1 and VEGFR2 as described in Pepper et al. (2000).

For experiment [2], the system named is VEGFR-2. Described as above. Particulars: 12 hours starvation of FGF-2 versus cells in FGF-2. On the procedure:
as §1

Experiment [3] concerns VEGFR-2. Briefly: Immunoprecipitation and Western blot of VEGFR-2 protein. The method, then: Neural progenitor cells from the normal cultures in FGF-2 or from cultures starved of FGF-2 for 12 hours were lysed and VEGFR-2 protein was immunoprecipitated from cell lysates with a polyclonal antibody (sc-504; Santa Cruz Biochemicals, Santa Cruz, Calif.) recognizing amino aids 1158 to 1345 in the mouse VEGFR2 carboxy terminus. Western blot was performed with a polyclonal anti-VEGFR-2 antibody (sc-315; Santa Cruz Biochemicals) recognizing the mouse carboxy terminal amino acids 1348 to 1367.
On the technique in general: Immunoblotting shows a protein as a band on a membrane.

Experiment [4] relates to neural progenitor cells. Briefly: Dunn chamber chemotaxis / chemokinesis of neural progenitor cells. The method, then: The SVZ was dissected from coronal slices of newborn rat brains, dissociated mechanically and trypsinized according to methods known in the art (See Lim et al. “Noggin antagonizes BMP signaling to create a niche for adult neurogenesis, Neuron, 28: 713-726 (2000), which is incorporated by reference herein). SVZ progenitors were purified using percoll gradient centrifugation according to methods known in the art (See Lim et al., 2000) and seeded onto matrigel (0.24 mg/cm^2)- or laminin-coated coverslips. Isolated cells were allowed to grow in Neurobasal medium supplemented with 20 ng/ml FGF-2, 1×B27, 2 mM […], 1 mM sodium pyruvate, 2 mM N-acetyl-cysteine, and 1% penicillin-streptomycin. Cultures were fed every three days with fresh medium containing 20 ng/ml FGF-2.
[…] Cell Sci., 99:769-775 (1991); Allen et al., “A role for Cdc42 in macrophage chemotaxis,” J. Cell. Biol, 141:1147-1157 (1998), both of which are incorporated by reference herein). Recombinant human VEGF-CΔNΔC (Dr. M. Skobe, Cancer Center, Mount Sinai Medical Center, New York) was used in some experiments. The Dunn chamber is made from a Helber bacteria counting chamber by grinding a circular well in the central platform to leave a 1 mm wide annular bridge between the inner and the outer well. Chemoattractants added to the outer well of the device will diffuse across the bridge to the inner blind well of the chamber and form a gradient. This apparatus allows one to determine the direction of migration in relation to the direction of the gradient.
Coverslips with cells were inverted onto the chamber and cell migration was recorded through the annular bridge between the concentric inner and outer wells, and a period of 2 hours was chosen to assess cell migration. In these studies, a systematic sampling was applied and all cells within the migration region of the chamber were recorded and analyzed. Data were recorded every 10 minutes using a ZEISS 10× objective via a HAMAMATSU CCD video camera using Openlab software.
[…] For chemokinesis experiments, VEGF (20 ng/ml) or FGF-2 (20 ng/ml) was added to both outer and inner wells of the Dunn chamber.
Directionality of cell movement was analyzed using scatter diagrams of cell displacement. The diagrams were oriented so that the position of the outer well of the chamber was vertically upwards (y direction). Each point represents the final positions of the cells at the end of the recording period where the starting point of migration is fixed at the intersection of the two axes.
To determine the efficiency of forward migration during the 2-hour recording period, each cell's forward migration index (FMI) was calculated as the ratio of forward progress (net distance the cell progressed in the direction of VEGF source) to the total path length (total distance the cell traveled through the field) (Foxman et al., 1999). FMI values were negative when cells moved away from the source of VEGF. The cell speed was calculated for each lapse interval recorded during the 2-hour period.

Experiment [5] concerns subventricular zone (SVZ) explants. Kind of experiment: Migration of neural progenitor cells from SVZ explants in collagen matrix. From the text: The frontal lobes of the brains of one-day-old Sprague-Dawley rat pups (Size, Zurich, Switzerland) were isolated and cut into 300 μm thick coronal sections with a McIllwain tissue chopper. From these slices the anterior part of the subventricular zone (SVZ) was microdissected. The SVZ explants were embedded in a collagen matrix and cultured for 7 days in chemically-defined serum-free medium (50% Dulbecco's modified Eagle's medium [Gibco, Berlin, […]], 50% F12, HEPES, Tris-HCl, and complemented with transferrin human 20 μg/ml, putrescine 100 μM, sodium selenite 30 nM, triiodothyronin 1 nM, docosahexaenoic acid 0.5 μg/ml, arachidonic acid 1 μg/ml, insulin 60 U/l) under 5% CO2. The medium was changed every 3rd day. For co-culture experiments, SVZ explants were cultured in the presence of murine C2C12 myoblasts that had been engineered to secret […] et al., 2001). C2C12 cells were suspended in a drop of collagen matrix which was placed at a distance of approximately 1,000 μm from the SVZ explant. As a control, mock-transfected cells of the same origin were placed into the collagen matrix in a similar manner and at the same distance, but on the opposite side of the explant. Cell migration was assessed at the end of the 7th day in culture. Three categories were established: 1, no migration: no or only a few cells emigrated from the explants; 2, symmetrical migration: numerous cells had left the explants, the distance of the migrating front of the cells exceeded 50 μm, no directionality of migration; 3, asymmetrical or directional migration: when the distance of the migrating front were at least twice that on the other side and exceeded 50 μm.

“Also recorded” adds a separate entry of the source.

For “FGF-2: fibroblast growth factor-2 (FGF-2), used at 20 ng/ml in culture medium”, in experiment [1], the “level of VEGFR-1 transcripts after FGF-2 starvation” value is recorded as “fivefold decrease”. For the same substance, the “level of VEGFR-2 transcripts after FGF-2 starvation” value in experiment [2] is recorded as “fivefold decrease”. Also, the “VEGFR-2 protein expression in the presence of FGF-2” value in experiment [3] (cultured in FGF-2) is “substantial expression”. The “VEGFR-2 protein expression in the absence of FGF-2” value in experiment [3] (starved of FGF-2 for 12 hours) is “little to no expression”. In experiment [4] (12-hour FGF-2 starvation, then 8-hour re-incubation with FGF-2, VEGF gradient), the “chemotactic response to VEGF after re-addition of FGF-2” value is recorded as “resume their chemotactic response; also recorded: rescued”. Besides, in experiment [4] (FGF-2 gradient, whether or not VEGF was present), the “chemotactic effect of FGF-2” value was “no chemotactic effect”. The “explants with migrating cells symmetrically distributed” value in experiment [5] (FGF-2 (20 ng/ml), co-cultured with mock-transfected cells) was 10/10. The “explants with symmetric migration” value in experiment [5] (application of VEGF and FGF-2 together or FGF-2 alone) is given as 12/12.
For VEGF, the “directionality of migration under chemokinesis conditions” value in experiment [4] (VEGF (20 ng/ml) in both inner and outer wells, FGF-2 present) is “no clear preference for displacement”. Moreover, the “forward migration index (FMI) versus FGF-2 gradient or chemokinesis” value in experiment [4] (VEGF gradient in the presence of FGF-2, 2-hour recording) is “significantly greater”. Moreover, the “migration speed versus FGF-2 gradient or chemokinesis” value in experiment [4] (VEGF gradient in the presence of FGF-2, mean over 2 hours) was “significantly greater”. Moreover, in experiment [4] (cells at 5 days starved of FGF-2 for 12 hours, then VEGF gradient), the “chemotaxis in a VEGF gradient after FGF-2 starvation” value was “lose their chemotactic response; also recorded: failed to undergo chemotaxis”. The “chemotaxis of neural progenitor cells in a VEGF gradient” value in experiment [4] (gradient established with 200 ng/ml VEGF in outer well, 20 ng/ml FGF-2 in both wells, day 6 cells, 2-hour recording) is “clear directionality of migration; also recorded: strong positive chemotaxis; also recorded: migrated efficiently toward the source of VEGF”. The “attractive effect on different coating matrices” value in experiment [4] (laminin-, poly-L-lysine- or matrigel-coated coverslips) is “similar”. Also, the “explants with no significant cell migration” value in experiment [5] (application of VEGF in the absence of FGF-2) is 4/4.
